“Also recorded” adds a separate entry of the source.
Key:
mice after stroke [1] = experiment: Cylinder task (spontaneous forelimb use when rearing) after stroke; type: in vivo, mouse; conditions: for gain of function post-stroke on the cylinder task: 7 to 42 days post-stroke
From the text: (§1) Stroke completely destroys the tissue in at the center of the stroke (the core) and partially damages the tissue adjacent to the infarct (Katsman D, Spinelli K, Zhang J, and Carmichael S T (2003) Tissue microenvironments within functional cortical subdivisions adjacent to focal stroke. J Cereb Blood Flow Met 23:997-1009; Carmichael S T, Archibeque I, Luke L, Nolan T, Momiy J, Li S. (2005) Growth-Associated Gene Expression after Stroke: Evidence for a growth-promoting region in peri-infarct cortex. Expt Neurol. 193:291-311), i.e., the peri-infarct region. Studies indicate that this peri-infarct region is disabled through partial damage to neuronal circuits, as described above. To model this process experimentally, a stroke model was used that produces complete damage to a part of the brain that controls forelimb use in a mouse, the forelimb motor cortex (FIGS. 5A-5B). […] The stroke destroys part of the forelimb motor cortex. The vertical line indicates site of tissue sections in the middle panel. […] The stroke damage is restricted to the cortex, with partial damage in adjacent white mater and surrounding motor areas. This damage is seen as increased staining for GFAP (reactive astrocytes, arrows) and increased cellularity in Nissl stains (arrows). This stroke knocks out part of the forelimb motor cortex and causes partial damage to the rest of forelimb cortex and to hindlimb motor cortex. This disables fore- and hindlimb control and produces weakness in using these limbs for walking and for exploratory forelimb behaviors, (such as using the forelimb when rearing onto objects, FIGS. 6A-6C). Measures of fore- and hindlimb behaviors in this model of stroke thus provide a readout of the function of partially damaged brain areas near the stroke core.
Treatments that must be administered very early in the clinical course of stroke, such as tPA, are difficult to deliver because most patients are not in the hospital and so rapid emergency response and laboratory screening systems must be developed. […]

α5GABAA receptor = target: T1, α5GABAA receptor (Mus musculus, UniProt P22723+Q8BHJ7); experiment: Whole-cell patch-clamp of tonic inhibition (Itonic) in brain slices with L655,708; type: cell-based
T1 construct: Whole-cell patch-clamp recordings were made from post-stroke brain slices; from tissue; host or cells: brain slices, peri-infarct motor cortex, layer 2/3 pyramidal neurons
From the text: (§2) Whole-cell patch-clamp recordings were made from post-stroke brain slices, within 200 μm of infarct (top left), from layer-2/3 (top right) pyramidal neurons (bottom panels) (FIG. 1A). Cells were voltage-clamped at +10 mV. […] FIGS. 1C and D show representative traces showing the tonic inhibitory currents in control and peri-infarct neurons, respectively.
(§3) Itonic remained elevated from 3- to 14-days post-stroke.
(§4) In post-stroke neurons, co-application only produced an effect (110.7±32.0%, n=5) similar to GAT-1 blockade alone (P<0.68; FIG. 2A), indicating a dysfunction in GAT-3/4 after stroke.

mice after stroke [2] = experiment: Grid-walking task after stroke in forelimb motor cortex; type: in vivo, mouse; conditions: subcutaneous osmotic minipump from 3 days after stroke
From the text: as §1, with “This damage is seen as increased staining for GFAP (reactive astrocytes, arrows) and increased cellularity in Nissl stains (arrows). This stroke knocks out part of the forelimb motor cortex and causes partial damage to the rest of forelimb cortex and to hindlimb motor cortex. This disables fore- and hindlimb control and produces weakness in using these limbs for walking and for exploratory forelimb behaviors, (such as using the forelimb when rearing onto objects, FIGS. 6A-6C).” left out, “core. […]” for “core.”

mice after stroke [3] = experiment: Behavioral/functional recovery after stroke (grid-walking and cylinder tasks together); type: in vivo, mouse
Procedure: The GABAaα5 inverse agonist L655,708 was administered through subcutaneously implanted osmotic minipumps. Mice were tested fore- and hindlimb function before, and then at one, two, four and six weeks after stroke.
FIGS. 9A-9C illustrate behavioral recovery after stroke in young and aged animals with L655,708. […] Functional recovery was assessed behaviorally on both the gridwalking task for forelimb footfaults (FIG. 9A) and hindlimb footfaults (FIG. 9B), and on the cylinder task for forelimb asymmetry (FIG. 9C). […] On average the normal gain of function in the aged stroke+vehicle treated animals is less than that of the young stroke+vehicle treated animals. In addition, the aged stroke+L655,708 animals show slightly less improvement compared to young stroke+L655,708 animals. For instance, on the cylinder task young stroke+L655,708 animals show a 15-18% gain of function post-stroke (7 to 42-days), compared with a 13-16% gain of function post-stroke in the aged. Data is shown as mean±s.e.m. for n=8 per group for L655,708 treatment for both young and aged animals, ***=P≤0.001 for stroke+vehicle vs Sham; +=P≤0.05, ++=P≤0.001 aged stroke+L655,708 vs aged stroke+vehicle, ##=P≤0.01, #=P≤0.001 young stroke+L655,708 vs young stroke+vehicle.
Functional recovery was assessed behaviorally on both the gridwalking task for forelimb footfaults (FIG. 10A), hindlimb footfaults (FIG. 10B), and on the cylinder task for forelimb asymmetry (FIG. 10C). Data are shown as mean±s.e.m. for n=8 per group, ***=P≤0.001 for stroke+vehicle vs. Sham; ##=P≤0.01, #=P≤0.001 vs. stroke+vehicle.
Two different durations of treatment were used (2 weeks and 6 weeks after stroke. Because stroke is a disease of aging, and the clinical target of stroke is most commonly aged patients, L655,708 was tested in aged animals after stroke. At the end of behavioral testing (6 weeks after stroke) mice received mapping of the pattern of cortical connections in the motor system in peri-infarct cortex (Overman J J, Kalaria S, Overman B, Willis D, Twiss J, Wanner I B, Li S, Carmichael S T (2008) Post-stroke blockade of ephrinA5 increases axonal sprouting in the mouse somatosensory cortex. Soc Neurosci. Abst.). Axonal sprouting in this pen-infarct cortex is closely associated with functional recovery in stroke (Carmichael, '06). Therapies directed toward neural repair after stroke promote the formation of new connections in peri-infarct cortex (Overman et al., '08).
To define the total role of GABAA α5 and δ receptors in functional recovery after stroke, behavioral testing was performed on Gabra5^−/− and Gabrd^−/− mice (FIGS. 8A-8C). For both α5 and δ knockouts, the same experimental approach was utilized. Mice were tested for e- and hindlimb function before stroke. […]

[4] = target: T2, GABA transporters (GATs): GAT-1, GAT-3/4 (Mus musculus, UniProt P31648); experiment: Whole-cell patch-clamp of tonic inhibition (Itonic) in brain slices after GAT blockade; type: cell-based; conditions: NO-711 10 μM
T2 construct: Whole-cell patch-clamp recordings were made from post-stroke brain slices; from tissue; host or cells: brain slices, peri-infarct motor cortex, recordings from layer 2/3 pyramidal neurons
From the text: as §2, §3, §4

GABAARs = experiment: GABAAR saturation test: GABA raised in ACSF after blocking both GATs; type: cell-based, mouse; conditions: GABA +10 μM in ACSF after 10 μM NO-711+40 μM SNAP-5114; control slices; n=3
From the text: Whole-cell patch-clamp recordings were made from post-stroke brain slices, within 200 μm of infarct (top left), from layer-2/3 (top right) pyramidal neurons (bottom panels) (FIG. 1A). Cells were voltage-clamped at +10 mV.

T1 sequence (Q8BHJ7 32-463 limits assumed): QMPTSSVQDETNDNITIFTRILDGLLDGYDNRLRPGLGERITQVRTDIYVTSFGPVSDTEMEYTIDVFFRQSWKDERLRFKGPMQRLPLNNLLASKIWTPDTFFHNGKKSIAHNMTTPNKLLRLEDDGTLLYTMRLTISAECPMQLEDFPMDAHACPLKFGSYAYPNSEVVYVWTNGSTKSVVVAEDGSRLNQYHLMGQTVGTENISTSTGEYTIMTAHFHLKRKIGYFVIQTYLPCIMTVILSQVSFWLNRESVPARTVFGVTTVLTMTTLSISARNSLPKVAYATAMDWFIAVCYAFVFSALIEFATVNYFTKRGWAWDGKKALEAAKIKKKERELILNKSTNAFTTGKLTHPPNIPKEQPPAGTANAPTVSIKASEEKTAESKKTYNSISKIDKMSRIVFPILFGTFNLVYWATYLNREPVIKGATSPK
T1 sequence (P22723 39-474): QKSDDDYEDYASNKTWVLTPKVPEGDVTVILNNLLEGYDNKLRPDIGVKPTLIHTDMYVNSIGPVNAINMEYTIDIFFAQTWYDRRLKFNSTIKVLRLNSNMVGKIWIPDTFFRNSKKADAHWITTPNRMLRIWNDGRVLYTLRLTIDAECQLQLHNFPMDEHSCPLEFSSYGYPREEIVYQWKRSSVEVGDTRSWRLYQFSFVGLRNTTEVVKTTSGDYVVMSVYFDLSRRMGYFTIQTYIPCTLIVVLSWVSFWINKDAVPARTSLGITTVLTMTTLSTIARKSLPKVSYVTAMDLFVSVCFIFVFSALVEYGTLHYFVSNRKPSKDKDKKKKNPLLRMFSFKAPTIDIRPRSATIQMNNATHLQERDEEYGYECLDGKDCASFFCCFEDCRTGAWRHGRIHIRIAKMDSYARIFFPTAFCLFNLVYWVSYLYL
T1 sequence (P63080 26-473 partner): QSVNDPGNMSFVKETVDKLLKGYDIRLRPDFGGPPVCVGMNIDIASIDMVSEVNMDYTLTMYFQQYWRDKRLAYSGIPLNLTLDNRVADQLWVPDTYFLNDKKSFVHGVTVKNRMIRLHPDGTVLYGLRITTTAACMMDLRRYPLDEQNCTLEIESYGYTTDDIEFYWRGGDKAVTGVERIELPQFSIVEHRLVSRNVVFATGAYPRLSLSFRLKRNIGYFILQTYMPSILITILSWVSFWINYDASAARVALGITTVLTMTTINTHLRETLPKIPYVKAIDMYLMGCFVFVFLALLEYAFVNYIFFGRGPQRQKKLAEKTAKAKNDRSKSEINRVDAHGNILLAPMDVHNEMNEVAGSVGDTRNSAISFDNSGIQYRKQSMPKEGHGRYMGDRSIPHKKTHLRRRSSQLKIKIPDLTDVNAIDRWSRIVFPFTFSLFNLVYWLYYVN

Q: What does the source list for `CCOC(=O)c1ncn2c1[C@@H]1CCCN1C(=O)c1cc(OC)ccc1-2` [L655,708]?
A: gain of function post-stroke on the cylinder task (mice after stroke [1]; aged stroke animals): 13-16%; forelimb function in the cylinder task (mice after stroke [1]; subcutaneous osmotic minipump from 3 days after stroke, 7 day post-stroke test period, FIG. 6C): recovered right forelimb use very quickly; gain of function post-stroke on the cylinder task (mice after stroke [1]; young stroke animals): 15-18%; effect on Itonic (α5GABAA receptor; 100 nM, representative recording (FIG. 2D)): reduced Itonic; effect on post-stroke Itonic (α5GABAA receptor; post-stroke neurons, P<0.05 (FIG. 2F)): significantly decreased post-stroke Itonic, and notably reverted Itonic to near-control level; hindlimb function in the grid-walking task (mice after stroke [2]; FIG. 6B): statistically significant improvement by the 42 day testing period; forelimb function in the grid-walking task (mice after stroke [2]; approx. 200 or 400 μg/kg/day, FIG. 6A): enhanced forelimb use; behavioral recovery after stroke, dosing duration (mice after stroke [3]; 2-week and 6-week treatment, 6-week the most significant recovery): produces behavioral recovery; functional recovery after stroke in Gabrd−/− mice (mice after stroke [3]; L655,708 given to GABAA receptor δ subunit null mutant mice): additive effect on functional recovery; also recorded: further functional recovery; functional recovery after stroke (mice after stroke [3]; treatment from 3 days after stroke, young and aged animals, FIGS. 9A-9C): increase in functional recovery in both young and aged animals; behavioral recovery after stroke, dose dependence (mice after stroke [3]; young adult and aged mice, low and high dose): promotes behavioral recovery after stroke in a dose-dependent manner

Q: What does the source list for `O=C(O)C1=CCCN(CCON=C(c2ccccc2)c2ccccc2)C1` [NO-711]?
A: % Itonic increase after GAT blockade ([4]; control neurons, n=6): 34.3±11.4%; % Itonic increase after GAT blockade ([4]; post-stroke neurons, n=10): 94.0±16.3%

Q: `NCCCC(=O)O` [GABA, gamma aminobutyric acid] was tested. Which “percent increase in Itonic” value (GABAARs) did it give?
A: 25.7±15.0%

Reference: patent US10206921B2, “Methods and compositions for treating a subject for central nervous system (CNS) injury” (THE REGENTS OF THE UNIVERSITY OF CALIFORNIA, priority 2009, dated 2019)
